From publication PMC10233829 (ACS Omega, 2023)
≈ marks a conversion by molar mass, not a printed value.

Experiments:
[1] = biological target: T1, S. aureus topoisomerase IV (Staphylococcus aureus, UniProt P0C1S7+P0C1U9); assay: Topoisomerase IV decatenation assay; assay type: biochemical; settings: decatenation of kinetoplast DNA; read-out: IC50 S. aureus topoisomerase IV (converted)
T1 construct: purchased Inspiralis, Norwich, UK
Method: Briefly, 1 U of the enzyme (gyrase or topo IV, Inspiralis. Norwich, UK) isolated from S. aureus converts 0.5 mg of relaxed pBR322 DNA to the supercoiled form (gyrase) or decatenates 200 ng of kinetoplast DNA (topo IV). […] The reactions were terminated by adding an equal volume of STEB buffer (40% sucrose, 100 mM Tris–HCl pH 8, 10 mM EDTA, and 0.5 mg/mL bromophenol blue), followed by extraction with 1 volume of chloroform/isoamyl alcohol (24:1). The samples were vortexed and centrifuged, and 20 μL of the aqueous phase of each sample was loaded onto a 1% agarose gel and left for 30 min prior to electrophoresis to allow diffusion of salt. […] Gels were stained with ethidium bromide and visualized under UV light in a transilluminator (ChemiDoc MP, Bio Rad).

[2] = tested on: E. coli ATCC 25922 biofilm; assay: Biofilm eradication assay (crystal violet); assay type: cell-based, Escherichia coli; settings: 4 MIC
Method: (§1) Three bacterial strains E. coli ATCC 25922, P. aeruginosa ATCC 15442, and S. aureus ATCC 6538 were used to assign biofilm eradication properties of compounds 5, 10, 11, and CP as the reference drug. To quantify the biomass of the bacteria biofilm, the crystal violet method was used with some modifications.[52] The bacteria were incubated to the mid-log phase, diluted to 103 cfu/mL in brain–heart infusion medium, and seeded in a 96-well plate. Bacterial biofilms were formed by overnight incubation at 37 °C with rotation at 140 rpm. After biofilm formation, all wells were washed with PBS to remove nonadherent bacteria cells. […] The biofilms with tested substances were incubated for 20 h at 37 °C with shaking at 140 rpm. The bacterial biofilm was stained with 0.1% (v/v) CV for 10 min. Afterward, the biofilm was rinsed with PBS and dried. To solubilize the adsorbed crystal violet, wells with stained biofilms were incubated in 30% acetic acid. To estimate the total biofilm biomass, optical density (OD) of the resulting solution was measured at 595 nm. Biofilm assays were repeated at least three times on different days, with two technical replicates assessed each time. A minimum eradication concentration (MBEC) was determined as the lowest concentration of compound, which could damage ≥50% of the formed biofilm structure.

[3] = tested on: S. aureus ATCC 6538 biofilm; assay: Biofilm eradication assay (crystal violet); assay type: cell-based, Staphylococcus aureus; settings: 4–2 MIC
Method: as §1

[4] = tested on: E. coli ATCC 25922; assay: Bacterial growth curve assay (OD600, 18 h); assay type: cell-based, Escherichia coli; settings: E. coli ATCC 25922, 18 h
[5] = tested on: P. aeruginosa ATCC 15442 and E. coli ATCC 25922; assay: MIC, standard Gram-negative rods as a panel; assay type: cell-based; settings: P. aeruginosa ATCC 15442, E. coli ATCC 25922
[6] = tested on: P. aeruginosa ATCC 15442; assay: Bacterial growth curve assay (OD600, 18 h); assay type: cell-based, Pseudomonas aeruginosa; settings: P. aeruginosa ATCC 15442, 18 h
[7] = biological target: S. aureus DNA gyrase (Staphylococcus aureus, UniProt P0A0K8+P20831); assay: biochemical; settings: supercoiling of relaxed pBR322
Chain of S. aureus DNA gyrase (P0A0K8 whole entry): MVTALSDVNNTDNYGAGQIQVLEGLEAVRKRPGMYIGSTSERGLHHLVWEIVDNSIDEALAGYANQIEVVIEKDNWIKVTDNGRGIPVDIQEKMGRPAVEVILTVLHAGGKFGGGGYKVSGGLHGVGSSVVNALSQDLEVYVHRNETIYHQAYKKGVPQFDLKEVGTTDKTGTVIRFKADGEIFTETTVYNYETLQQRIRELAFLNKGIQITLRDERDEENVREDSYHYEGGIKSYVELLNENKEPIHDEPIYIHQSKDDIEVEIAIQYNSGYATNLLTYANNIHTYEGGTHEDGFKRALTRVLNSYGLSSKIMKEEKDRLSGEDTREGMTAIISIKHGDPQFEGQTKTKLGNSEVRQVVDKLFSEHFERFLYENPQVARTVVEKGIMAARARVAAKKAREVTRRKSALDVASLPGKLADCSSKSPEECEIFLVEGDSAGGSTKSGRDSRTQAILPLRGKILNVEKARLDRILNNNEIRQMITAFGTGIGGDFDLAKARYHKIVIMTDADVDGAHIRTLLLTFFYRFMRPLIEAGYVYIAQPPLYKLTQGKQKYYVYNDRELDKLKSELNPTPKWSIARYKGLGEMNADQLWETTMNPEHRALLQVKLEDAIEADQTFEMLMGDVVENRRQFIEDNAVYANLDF
Chain of S. aureus DNA gyrase (P20831 whole entry): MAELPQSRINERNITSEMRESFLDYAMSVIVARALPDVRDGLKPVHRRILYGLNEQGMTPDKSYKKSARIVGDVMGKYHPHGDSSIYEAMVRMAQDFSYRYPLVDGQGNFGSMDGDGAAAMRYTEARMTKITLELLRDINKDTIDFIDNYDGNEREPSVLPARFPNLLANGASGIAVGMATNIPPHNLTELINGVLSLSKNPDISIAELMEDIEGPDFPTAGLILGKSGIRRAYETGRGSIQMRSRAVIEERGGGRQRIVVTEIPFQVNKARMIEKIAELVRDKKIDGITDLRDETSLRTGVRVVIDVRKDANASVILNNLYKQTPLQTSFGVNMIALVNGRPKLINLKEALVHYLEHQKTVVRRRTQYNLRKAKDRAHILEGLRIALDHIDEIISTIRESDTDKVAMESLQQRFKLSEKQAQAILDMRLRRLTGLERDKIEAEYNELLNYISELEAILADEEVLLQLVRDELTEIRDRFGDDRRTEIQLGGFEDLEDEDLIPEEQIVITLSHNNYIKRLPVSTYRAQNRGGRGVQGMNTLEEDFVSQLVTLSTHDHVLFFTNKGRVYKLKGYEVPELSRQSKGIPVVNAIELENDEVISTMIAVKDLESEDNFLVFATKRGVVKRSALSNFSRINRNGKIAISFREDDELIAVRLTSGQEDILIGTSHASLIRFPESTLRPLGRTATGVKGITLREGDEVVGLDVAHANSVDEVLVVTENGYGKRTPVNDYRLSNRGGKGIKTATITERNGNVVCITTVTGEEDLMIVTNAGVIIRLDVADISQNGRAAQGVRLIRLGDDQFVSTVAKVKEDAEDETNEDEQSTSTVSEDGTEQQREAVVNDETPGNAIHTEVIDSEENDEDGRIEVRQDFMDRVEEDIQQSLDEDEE
Method: The enzymatic assay was carried using commercial topoisomerases type II as previously described by Alt et al.[55] with some modifications.
Briefly, 1 U of the enzyme (gyrase or topo IV, Inspiralis. Norwich, UK) isolated from S. aureus converts […] of relaxed pBR322 DNA to the supercoiled form (gyrase) or decatenates 200 ng of kinetoplast DNA (topo IV). […] The reactions were terminated by adding an equal volume of STEB buffer (40% sucrose, 100 mM Tris–HCl pH 8, 10 mM EDTA, and 0.5 mg/mL bromophenol blue), followed by extraction with 1 volume of chloroform/isoamyl alcohol (24:1). The samples were vortexed and centrifuged, and 20 μL of the aqueous phase of each sample was loaded onto a 1% agarose gel and left for 30 min prior to electrophoresis to allow diffusion of salt. […] Gels were stained with ethidium bromide and visualized under UV light in a transilluminator (ChemiDoc MP, Bio Rad).

T1 sequence (P0C1U9 whole entry): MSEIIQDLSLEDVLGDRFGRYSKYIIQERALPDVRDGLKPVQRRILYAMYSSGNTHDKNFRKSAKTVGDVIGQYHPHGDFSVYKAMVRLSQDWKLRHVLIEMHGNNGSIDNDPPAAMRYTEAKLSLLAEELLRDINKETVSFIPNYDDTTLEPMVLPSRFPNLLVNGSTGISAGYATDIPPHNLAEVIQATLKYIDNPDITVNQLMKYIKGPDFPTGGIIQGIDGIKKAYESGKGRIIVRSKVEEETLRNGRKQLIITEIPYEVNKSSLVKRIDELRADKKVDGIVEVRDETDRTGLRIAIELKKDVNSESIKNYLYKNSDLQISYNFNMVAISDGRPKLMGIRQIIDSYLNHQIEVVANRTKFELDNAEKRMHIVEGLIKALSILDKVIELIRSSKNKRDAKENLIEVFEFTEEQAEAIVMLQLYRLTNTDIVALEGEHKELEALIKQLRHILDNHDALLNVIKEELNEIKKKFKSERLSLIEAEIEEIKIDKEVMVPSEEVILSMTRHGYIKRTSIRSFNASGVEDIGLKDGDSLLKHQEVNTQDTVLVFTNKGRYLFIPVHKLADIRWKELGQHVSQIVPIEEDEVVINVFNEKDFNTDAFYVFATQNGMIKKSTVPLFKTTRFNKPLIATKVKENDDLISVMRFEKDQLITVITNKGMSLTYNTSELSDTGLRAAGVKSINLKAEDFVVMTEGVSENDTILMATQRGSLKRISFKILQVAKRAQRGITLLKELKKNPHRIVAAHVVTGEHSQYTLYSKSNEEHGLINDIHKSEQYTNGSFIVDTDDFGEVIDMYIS
T1 sequence (P0C1S7 whole entry): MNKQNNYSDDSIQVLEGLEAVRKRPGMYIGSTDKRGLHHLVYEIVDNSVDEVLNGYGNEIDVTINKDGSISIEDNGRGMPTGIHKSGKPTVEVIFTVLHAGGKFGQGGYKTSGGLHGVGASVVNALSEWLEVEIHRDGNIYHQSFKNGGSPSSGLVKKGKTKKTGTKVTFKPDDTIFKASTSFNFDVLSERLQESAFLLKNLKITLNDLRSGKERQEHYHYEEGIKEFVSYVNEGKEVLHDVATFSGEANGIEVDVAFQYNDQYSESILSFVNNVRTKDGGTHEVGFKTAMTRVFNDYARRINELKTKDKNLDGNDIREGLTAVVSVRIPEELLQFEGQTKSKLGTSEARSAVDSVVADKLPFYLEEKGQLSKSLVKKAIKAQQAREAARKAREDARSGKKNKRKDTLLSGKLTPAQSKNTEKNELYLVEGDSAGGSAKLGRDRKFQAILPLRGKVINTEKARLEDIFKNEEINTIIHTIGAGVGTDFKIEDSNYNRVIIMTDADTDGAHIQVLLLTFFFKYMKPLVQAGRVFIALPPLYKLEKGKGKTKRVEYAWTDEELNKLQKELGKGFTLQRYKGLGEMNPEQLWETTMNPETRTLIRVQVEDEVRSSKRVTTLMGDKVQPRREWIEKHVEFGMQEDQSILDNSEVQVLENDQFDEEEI

With `O=C(O)c1cn(C2CC2)c2cc(N3CCN(C(=O)CCCCBr)CC3)c(F)cc2c1=O` [Compound 11, 7-[4-(5-Bromopentanoyl)-piperazin-1-yl]-1-cyclopropyl-6-fluoro-4-oxo-1,4-dihydro-quinoline-3-carboxylic Acid] the IC50 [1] was 12.1 µM, the “eradication of the biofilm formed by E. coli” value [2] was “approx. 20%” and the melting point was 225.7 to 226.2 °C. The “elimination of the mature biofilm of S. aureus ATCC 6538” value [3] was 19–25%, the “concentration that inhibited bacterial cell growth” value [4] was ≥ 0.025 µg/mL and the “share of CP potency kept against standard Gram-negative rods” value [5] was 60%. The MIC ([5]; read-out: MIC against standard Gram-negative rods (range over strains)) was 0.025 to 0.1 mg/L (≈ 0.0506 to 0.202 µM), the “dose that fully inhibited bacterial growth” value [6] was ≥ 0.2 µg/mL and the IC50 [7] was 16.2 µM.
